# Laboratory results: patent US11214803B2, “Modulators of YAP1 expression” (Ionis Pharmaceuticals, Inc., priority 2019, dated 2022)
# Strand notation (5' to 3'): a small letter for the sugar, then the base; units joined by * are phosphorothioate-linked, units joined directly phosphodiester-linked; [ ] holds rarer units or linkages, { } end groups; capitals alone tell only the bases. k = constrained ethyl (cEt); [5mC] = 5-methylcytosine; d = 2'-deoxy (DNA)
# Tested on: Yap1 mRNA
# Assay: Antisense inhibition of human Yap1 in A-431 cells by cEt gapmers, single dose (Example 1, RTS4814)
# Format: cell-based
# Settings: A-431 cells, 5,000 cells per well, free uptake, 2,000 nM modified oligonucleotide, approx. 48 hours, RTS4814, normalized to RIBOGREEN; Table 3
# Description: Modified oligonucleotides were designed to target a Yap1 nucleic acid and were tested for their effect on Yap1 mRNA level in vitro. The modified oligonucleotides were tested in a series of experiments that had similar culture conditions. Cultured A-431 cells at a density of 5,000 cells per well were treated using free uptake with 2,000 nM of modified oligonucleotide. After a treatment period of approximately 48 hours, RNA was isolated from the cells and Yap1 mRNA levels were measured by quantitative real-time RTPCR. Human primer probe set RTS4814 (forward sequence […], designated herein as SEQ ID NO.: 11; reverse sequence […], designated herein as SEQ ID NO.: 12; probe sequence […], designated herein as SEQ ID NO.: 13) was used to measure mRNA levels. Yap1 mRNA levels were normalized to total RNA content, as measured by RIBOGREEN®. Results are presented in the tables below as percent control of the amount of Yap1 mRNA relative to untreated control cells (% UTC). The modified oligonucleotides with percent control values marked with an asterisk (*) target the amplicon region of the primer probe set. Additional assays may be used to measure the potency and efficacy of the modified oligonucleotides targeting the amplicon region.
# The newly designed modified oligonucleotides in the Tables below were designed as 3-10-3 cEt gapmers. The gapmers are 16 nucleosides in length, wherein the central gap segment comprises of ten 2′-deoxynucleosides and is flanked by wing segments on the 5′ direction and the 3′ direction comprising three nucleosides each. Each nucleoside in the 5′ wing segment and each nucleoside in the 3′ wing segment has a cEt sugar modification. The internucleoside linkages throughout each gapmer are phosphorothioate (P═S) linkages. All cytosine residues throughout each gapmer are 5-methylcytosines.
# “Start site” indicates the 5′-most nucleoside to which the gapmer is targeted in the human gene sequence. “Stop site” indicates the 3′-most nucleoside to which the gapmer is targeted human gene sequence. […] Activity of the modified oligonucleotide may be defined in a different experiment.
row,Substance,YAP1 (% UTC)
1,715477 (antisense kA*kG*kA*d[5mC]*dA*d[5mC]*dA*dT*dA*d[5mC]*dT*d[5mC]*dT*kA*kG*kT) [Compound 715477],61
2,715480 (antisense kG*kG*kA*dA*dA*d[5mC]*d[5mC]*dA*dT*dT*dA*dT*dT*kA*k[5mC]*kT) [Compound 715480],23
3,715486 (antisense kT*kA*k[5mC]*dT*dT*d[5mC]*dA*dT*dA*dG*d[5mC]*dT*dT*kA*kT*kA) [Compound 715486],27
4,715489 (antisense kA*kA*k[5mC]*dT*dA*dT*dT*dA*d[5mC]*dT*dT*d[5mC]*dA*kT*kA*kG) [Compound 715489],90
5,715492 (antisense kG*k[5mC]*kT*dA*dG*d[5mC]*dT*dG*dG*dT*dG*d[5mC]*d[5mC]*kA*k[5mC]*kT) [Compound 715492],76
6,715495 (antisense kA*k[5mC]*kA*dG*dA*dG*dG*dT*dG*d[5mC]*dT*dA*dG*k[5mC]*kT*kG) [Compound 715495],80
7,715498 (antisense kT*kG*kA*dA*d[5mC]*d[5mC]*d[5mC]*dT*dT*dG*dA*dA*dA*kA*kT*kA) [Compound 715498],91
8,715501 (antisense kA*kA*kA*dA*dG*d[5mC]*d[5mC]*dT*dT*dA*dG*dA*dG*kT*k[5mC]*kA) [Compound 715501],28
9,715504 (antisense kT*kG*kG*dT*dT*dT*dA*dT*dT*dG*dT*dA*dA*kA*kA*kG) [Compound 715504],70
10,715507 (antisense kT*kG*kG*dG*dA*dT*dT*dG*dA*dT*dA*dT*dT*k[5mC]*k[5mC]*kG) [Compound 715507],95
11,715510 (antisense kA*kT*kT*dT*dG*d[5mC]*dT*dG*dT*dG*d[5mC]*dT*dG*kG*kG*kA) [Compound 715510],22
12,715513 (kG*k[5mC]*kG*dG*dA*dG*dG*d[5mC]*dG*d[5mC]*dG*d[5mC]*dG*k[5mC]*kA*kT; antisense) [Compound 715513],125
13,715516 (k[5mC]*k[5mC]*kT*dA*dT*dG*dA*dG*dT*d[5mC]*dA*dA*d[5mC]*k[5mC]*kT*kG; antisense) [Compound 715516],77
14,715519 (kT*kT*k[5mC]*d[5mC]*dA*d[5mC]*dT*d[5mC]*dA*dA*dG*dT*dT*kA*k[5mC]*kA; antisense) [Compound 715519],96
15,715522 (kA*k[5mC]*kT*d[5mC]*dT*dT*d[5mC]*dT*dT*dT*d[5mC]*d[5mC]*dA*k[5mC]*kT*k[5mC]; antisense) [Compound 715522],87

# Same assay, conditions: Table 1; A-431 cells, free uptake, 2,000 nM, approximately 48 hours, RTS4814; Yap1 mRNA relative to untreated control cells
row,Substance,YAP1 (% UTC)
1,715478 (antisense kA*k[5mC]*k[5mC]*dA*dT*dT*dA*dT*dT*dA*d[5mC]*dT*d[5mC]*k[5mC]*kT*kG) [Compound 715478],7
2,715481 (antisense kT*kT*kG*dG*dA*dA*dA*d[5mC]*d[5mC]*dA*dT*dT*dA*kT*kT*kA) [Compound 715481],66
3,715484 (antisense kT*kA*k[5mC]*dT*d[5mC]*dT*dT*dT*dG*dG*dA*dA*dA*k[5mC]*k[5mC]*kA) [Compound 715484],123
4,715490 (antisense k[5mC]*k[5mC]*kA*dA*d[5mC]*dT*dA*dT*dT*dA*d[5mC]*dT*dT*k[5mC]*kA*kT) [Compound 715490],38
5,715493 (antisense kG*kT*kG*d[5mC]*dT*dA*dG*d[5mC]*dT*dG*dG*dT*dG*k[5mC]*k[5mC]*kA) [Compound 715493],62
6,715496 (antisense k[5mC]*k[5mC]*k[5mC]*dT*dT*dG*dA*dA*dA*dA*dT*dA*dA*kG*kG*kG) [Compound 715496],124
7,715499 (antisense kT*kA*kT*dG*dA*dA*d[5mC]*d[5mC]*d[5mC]*dT*dT*dG*dA*kA*kA*kA) [Compound 715499],126
8,715502 (antisense k[5mC]*k[5mC]*kA*dG*dA*d[5mC]*dT*dT*dA*dA*dT*dT*d[5mC]*kA*kA*kG) [Compound 715502],91
9,715505 (antisense kA*kT*kT*dG*dG*dT*dT*dT*dA*dT*dT*dG*dT*kA*kA*kA) [Compound 715505],84
10,715508 (antisense k[5mC]*kT*kG*dT*dG*d[5mC]*dT*dG*dG*dG*dA*dT*dT*kG*kA*kT) [Compound 715508],24
11,715511 (antisense kT*k[5mC]*k[5mC]*dT*dG*dA*d[5mC]*dA*dT*dT*dT*dT*dG*kG*kA*kG) [Compound 715511],107
12,715514 (kG*kA*kG*d[5mC]*dG*dA*dA*dG*dG*dT*dG*d[5mC]*dG*kG*kA*kG; antisense) [Compound 715514],121
13,715517 (kG*kG*k[5mC]*d[5mC]*dT*dA*dT*dG*dA*dG*dT*d[5mC]*dA*kA*k[5mC]*k[5mC]; antisense) [Compound 715517],109
14,715520 (kT*kT*k[5mC]*dT*dT*dT*d[5mC]*d[5mC]*dA*d[5mC]*dT*d[5mC]*dA*kA*kG*kT; antisense) [Compound 715520],122

# Same assay, conditions: Table 2; A-431 cells, free uptake, 2,000 nM, approximately 48 hours, RTS4814; Yap1 mRNA relative to untreated control cells
row,Substance,YAP1 (% UTC)
1,715476 (antisense kA*kA*kA*dG*d[5mC]*dT*dT*dT*d[5mC]*dT*dT*dT*dA*kT*k[5mC]*kT) [Compound 715476],84
2,715479 (antisense kA*kA*kA*d[5mC]*d[5mC]*dA*dT*dT*dA*dT*dT*dA*d[5mC]*kT*k[5mC]*k[5mC]) [Compound 715479],38
3,715482 (antisense k[5mC]*kT*kT*dT*dG*dG*dA*dA*dA*d[5mC]*d[5mC]*dA*dT*kT*kA*kT) [Compound 715482],58
4,715485 (antisense kA*kA*kT*dA*d[5mC]*dT*d[5mC]*dT*dT*dT*dG*dG*dA*kA*kA*k[5mC]) [Compound 715485],72
5,715488 (antisense k[5mC]*kT*kA*dT*dT*dA*d[5mC]*dT*dT*d[5mC]*dA*dT*dA*kG*k[5mC]*kT) [Compound 715488],66
6,715494 (antisense kG*kA*kG*dG*dT*dG*d[5mC]*dT*dA*dG*d[5mC]*dT*dG*kG*kT*kG) [Compound 715494],46
7,715497 (antisense kA*kA*k[5mC]*d[5mC]*d[5mC]*dT*dT*dG*dA*dA*dA*dA*dT*kA*kA*kG) [Compound 715497],155
8,715500 (antisense kA*kA*kG*d[5mC]*d[5mC]*dT*dT*dA*dG*dA*dG*dT*d[5mC]*kA*kA*kT) [Compound 715500],30
9,715503 (antisense k[5mC]*k[5mC]*k[5mC]*d[5mC]*dA*dG*dA*d[5mC]*dT*dT*dA*dA*dT*kT*k[5mC]*kA) [Compound 715503],136
10,715506 (antisense kA*kA*kA*dT*dT*dG*dG*dT*dT*dT*dA*dT*dT*kG*kT*kA) [Compound 715506],112
11,715509 (antisense kT*kG*k[5mC]*dT*dG*dT*dG*d[5mC]*dT*dG*dG*dG*dA*kT*kT*kG) [Compound 715509],42
12,715512 (antisense kA*kG*kG*d[5mC]*dG*d[5mC]*dG*d[5mC]*dG*d[5mC]*dA*dT*dT*kG*kT*kG) [Compound 715512],97
13,715515 (kT*kA*kT*dG*dA*dG*dT*d[5mC]*dA*dA*d[5mC]*d[5mC]*dT*kG*k[5mC]*kA; antisense) [Compound 715515],94
14,715518 (kT*kT*kT*dG*dG*dG*d[5mC]*dA*dA*dA*dG*dT*dT*k[5mC]*k[5mC]*kT; antisense) [Compound 715518],60
15,715521 (kT*k[5mC]*kT*dT*d[5mC]*dT*dT*dT*d[5mC]*d[5mC]*dA*d[5mC]*dT*k[5mC]*kA*kA; antisense) [Compound 715521],72
